Results taken from patent US6361792B1, “Lipid dispersions and methods of use” (Alliance Pharmaceutical Corp., priority 1987, dated 2002).
Entries after “also recorded” stand apart in the source; their conditions may differ.

Key:
conscious swine = assay: Delayed febrile response (core body temperature) to intravenous lipid dispersion in conscious swine, with or without prophylaxis; format: in vivo; conditions: for effect on febrile reaction to fluorocarbon emulsion: prophylactic treatment, dose not given
Procedure: Swine were instrumented 48 hours prior to study for determination of core body temperature using a catheter-tipped thermistor, and for intravenous injection using an axillary vein catheter. On the day of study, core body temperature was determined at baseline and at regular intervals for 6 h after intravenous injection of Imagent®BP.

thromboxane synthetase = biological target: T1, thromboxane synthetase (Rattus norvegicus, UniProt P49430); conditions: in the rat; cited from earlier work
T1 sequence (P49430 1-533): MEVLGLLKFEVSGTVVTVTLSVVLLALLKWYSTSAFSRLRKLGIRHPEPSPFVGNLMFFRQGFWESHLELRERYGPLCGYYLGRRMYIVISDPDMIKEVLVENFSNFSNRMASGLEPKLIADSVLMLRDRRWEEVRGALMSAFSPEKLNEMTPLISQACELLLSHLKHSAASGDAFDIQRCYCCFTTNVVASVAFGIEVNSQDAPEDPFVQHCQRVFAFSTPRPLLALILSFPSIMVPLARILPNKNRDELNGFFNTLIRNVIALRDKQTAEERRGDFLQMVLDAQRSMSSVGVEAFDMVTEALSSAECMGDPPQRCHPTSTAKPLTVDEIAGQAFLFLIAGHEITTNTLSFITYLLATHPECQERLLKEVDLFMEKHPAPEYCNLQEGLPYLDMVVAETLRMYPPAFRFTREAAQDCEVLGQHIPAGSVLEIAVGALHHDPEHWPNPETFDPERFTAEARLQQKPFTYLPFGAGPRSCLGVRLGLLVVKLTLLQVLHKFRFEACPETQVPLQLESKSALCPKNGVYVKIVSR

anesthetized swine = assay: Prophylaxis of the acute hemodynamic response to intravenous fluorocarbon emulsion with cyclooxygenase inhibitors
Excerpt: All animals were fully anesthetized (ketamine-sodium pentobarbital), placed on positive pressure ventilation, and instrumented for determination of pulmonary artery pressure, cardiac output, ECG (electrocardiogram), right atrial pressure, and whole blood samples collections. Changes in skin color were also quantified using a relative color scale ranging from normal (light pink) to darker shades of pink and purple. Continuous electrocardiographs and oscillographic recordings of blood pressures were made. At least 30 minutes of baseline data were collected before intravascular administration of the substances. After control recordings, infusion of the pigs was carried out with 3 ml/kg body weight of either fluorocarbon emulsion as Imagent®BP (90% or 100% perfluorooctylbromide) or saline at a rate of 2 ml/min i.v. over 15 minutes.
A series of experiments was conducted to evaluate the effects of prophylactic treatment with cyclooxygenase inhibitors on the acute hemodynamic response to intravenous injection of 90% Imagent®BP in anesthetized swine. […] Animals receiving prophylaxis were administered indomethacin (0.5 mg/kg p.o.) prior to administration of the test article. Test swine were treated prophylactically with indomethacin, ibuprofen and aspirin.

tumor-bearing animals = conditions: cited from earlier work

methylprednisone
effect on febrile response to Imagent BP (conscious swine; oral 5 mg/kg 12 h and 2 h before injection (methylprednisone), 5 mg/kg): attenuated febrile response | effect on febrile response to Imagent BP (conscious swine; oral 5 mg/kg 12 h and 2 h before injection (methylprednisone), listed as Methylprednisone, 5 mg/kg): attenuates the response

Cn1ccnc1 [1-methyl-imidazole]
inhibition of thromboxane synthetase (thromboxane synthetase): act effectively to inhibit thromboxane synthetase

O=C(O)c1ccc(OCCn2ccnc2)cc1 [dazoxiben, 4-(2-(1 H-imidazol-1 yl)ethoxy)benzoic acid]
inhibition of thromboxane synthetase (thromboxane synthetase): act effectively to inhibit thromboxane synthetase

CC(C)Cc1ccc(C(C)C(=O)O)cc1 (racemic) [ibuprofen, (±)-2-(p-isobutylphenyl)propionic acid]
effect on acute hemodynamic response (mPAP) to Imagent BP (anesthetized swine; oral 20 mg/kg 1 h before Imagent BP 3 ml/kg i.v., 20 mg/kg): prevent the acute hemodynamic response | effect on acute hemodynamic response (mPAP) to Imagent BP (anesthetized swine; oral 20 mg/kg 1 h before Imagent BP 3 ml/kg i.v., listed as Ibuprofen, 20 mg/kg): significantly attenuated the mPAP responses | effect on febrile response to Imagent BP (conscious swine; oral 20 mg/kg 1 h before injection, 6 h time course): significantly suppressed | symptoms in reaction to intravenous fluorocarbon emulsion (tumor-bearing animals): alleviated

COc1ccc2cc([C@H](C)C(=O)O)ccc2c1 [naproxen]
effect on febrile response to Imagent BP (conscious swine; oral 5 mg/kg 1 h before injection (naproxen), 5 mg/kg): attenuated febrile response

O=C(O)CCCCCc1cccc2cncn12 [CGS 13080, imidazo(1,5-pyridine-5-hexanoic acid)]
inhibition of thromboxane synthetase (thromboxane synthetase): act effectively to inhibit thromboxane synthetase

CC(=O)Nc1ccc(O)cc1 [acetaminophen]
effect on febrile reaction to fluorocarbon emulsion (conscious swine): not prevented

CC(=O)Oc1ccccc1C(=O)O [aspirin, acetylsalicylic acid]
effect on increased mPAP response to Fluosol (20% fluorocarbon emulsion) (anesthetized swine; aspirin pretreatment vs Fluosol alone, FIG. 2): decreased response | blood cell counts (erythrocytes, leukocytes, platelets) after Imagent BP (anesthetized swine; aspirin prophylaxis, oral 5 mg/kg 1 h before): nearly identical to that seen with the saline control | effect on acute hemodynamic response (mPAP) to Imagent BP (anesthetized swine; oral 5 mg/kg 1 h before Imagent BP (90%) 3 ml/kg i.v., 5 mg/kg): prevent the acute hemodynamic response; also recorded: appeared to completely block any increases in mPAP | effect on febrile reaction to fluorocarbon emulsion (conscious swine): not prevented

COc1ccc2c(c1)c(CC(=O)O)c(C)n2C(=O)c1ccc(Cl)cc1 [indomethacin, 1-(pchlorobenzoyl)-5-methoxy-2-methylindole-3-acetic acid]
effect on acute hemodynamic response (mPAP) to Imagent BP (anesthetized swine; indomethacin i.v. bolus 10 mg/kg then 6 mg/kg/hr, Imagent BP 90% 3 ml/kg i.v.): prevent the acute hemodynamic response; also recorded: virtually prevented all of the hemodynamic reactions

O=C(O)CCCCCCCn1ccnc1 [N(7-carboxyheptyl)imidazole]
inhibition of thromboxane synthetase (thromboxane synthetase): act effectively to inhibit thromboxane synthetase
